Values of other authors as cited in patent US20150133410A1, “TOPICAL OPHTHALMIC, OTIC, AND NASAL COMPOSITIONS OF CIPROFLOXACIN” (priority 2013, published 2015).
Where two headings read alike, the source gives them in different places.

Conditions: aqueous solutions of about 0.2 to about 1 weight percent

pH above which crystalline precipitation of ciprofloxacin occurs (5° C.): above 5
pH above which crystalline precipitation of ciprofloxacin occurs (room temperature): above 5.5
SMILES: O=C(O)c1cn(C2CC2)c2cc(N3CCNCC3)c(F)cc2c1=O [ciprofloxacin]
